Tested on: patients after acute myocardial infarction
Assay: Angina pectoris score, total and single (frequency/attack times, duration, pain degree, dose of nitroglycerin), same clinical trial
Assay type: in vivo, human
Design: total angina pectoris score, Md / total angina pectoris score, Mean: scale not given here
Conditions: for change of attack times score, patients (%): Follow-up baseline
Excerpt: In order to better understand the present invention, a multi-center, randomized, double-blind, double-dummy and positive drug controlled trial had been conducted. 3508 patients who were in accordance with the diagnostic standards of AMI for 28 days to 2 years and differentiated as Qi deficiency and blood stagnation syndrome by TCM were studied. 0.5 g Chinese medicine composition prepared by the method of EXAMPLE 1 (Coded as QSYQ) was administrated half an hour after meal, 3 times per day. Aspirine was used as a positive drug. The patients were treated for 1 year and observed for 6 months.
They included the overall survival time, angina pectoris score, TCM symptom score and life quality score, where angina pectoris score, TCM symptom score and life quality score were evaluated at randomization, in 1st, 3rd, 6th, 9th, 12th month after treatment and 18th month after follow-up.
Total angina pectoris score was described on every observation period and the change of observation in comparison with baseline. T-test or Wilcoxon rank sum test were used for inter-group comparison. Grade of total score was evaluated on every observation and Wilcoxon rank sum test was used for inter-group comparison. T-test and Pairing signed rank sum test were used for analyzing the change of total score on every observation between groups in comparison with the baseline.
Single angina pectoris score was depicted on every observation time-point and the change of observation in comparison with baseline. Wilcoxon rank sum test was used for inter-group comparison. Pairing signed rank sum test was used for analyzing the change of total score on every observation between groups in comparison with the baseline.
Total angina pectoris score was described on every observation period and the change of observation in comparison with the baseline. T-test or Wilcoxon rank sum test were used for inter-group comparison. Grade of total score was evaluated on every observation and Wilcoxon rank sum test was used for inter-group comparison. T-test and Pairing signed rank sum test were used for analyzing the change of total score on every observation between groups in comparison with the baseline.
Single angina pectoris score was described on every observation time-point and the change of observation in comparison with baseline. Wilcoxon rank sum test was used for inter-group comparison. Pairing signed rank sum test was used for analyzing the change of total score on every observation between groups in comparison with the baseline.

[1] = FAS, 12 months after treatment-baseline

CC(=O)Oc1ccccc1C(=O)O [Control group, aspirine] was tested, and the “change of total angina pectoris score, Md” value [1] was −2.00, the “change of total angina pectoris score, Mean” value [1] was −3.28 and the “patients with change of dose of nitroglycerin score 0 (%)” value [1] was “(65.55%)”. For the same molecule, the “patients with change of dose of nitroglycerin score 1 (%)” value [1] was “(0.52%)”, the “patients with change of dose of nitroglycerin score 2 (%)” value [1] was “(3.97%)” and the “patients with change of dose of nitroglycerin score 4 (%)” value [1] was “(0.40%)”. For the same molecule, the “patients with change of dose of nitroglycerin score 6 (%)” value [1] was “(0.35%)”, the “patients with change of dose of nitroglycerin score −1 (%)” value [1] was “(0.52%)” and the “patients with change of dose of nitroglycerin score −2 (%)” value [1] was “(21.77%)”. The “patients with change of dose of nitroglycerin score −3 (%)” value [1] was “(0.06%)”, the “patients with change of dose of nitroglycerin score −4 (%)” value [1] was “(4.95%)” and the “patients with change of dose of nitroglycerin score −5 (%)” value [1] was “(0.06%)”. The “patients with change of dose of nitroglycerin score −6 (%)” value [1] was “(1.84%)”, the “distribution of total angina pectoris score: Medium, number of patients” value (FAS, Baseline) was 608 and the “distribution of total angina pectoris score: Medium, percentage of patients” value (FAS, Baseline) was “(34.90%)”. The “distribution of total angina pectoris score: Mild, number of patients” value (FAS, Baseline) was 1086, the “distribution of total angina pectoris score: Mild, percentage of patients” value (FAS, Baseline) was “(62.34%)” and the “distribution of total angina pectoris score: Severe, number of patients” value (FAS, Baseline) was 48. For the same molecule, the “distribution of total angina pectoris score: Severe, percentage of patients” value (FAS, Baseline) was “(2.76%)”, the “total angina pectoris score, Md” value (FAS, Baseline) was 8.00 and the “total angina pectoris score, Mean” value (FAS, Baseline) was 7.12. For the same molecule, the “distribution of total angina pectoris score: Medium, number of patients” value (FAS, Follow-up) was 199, the “distribution of total angina pectoris score: Medium, percentage of patients” value (FAS, Follow-up) was “(13.79%)” and the “distribution of total angina pectoris score: Mild, number of patients” value (FAS, Follow-up) was 1243. For the same molecule, the “distribution of total angina pectoris score: Mild, percentage of patients” value (FAS, Follow-up) was “(86.14%)”, the “distribution of total angina pectoris score: Severe, number of patients” value (FAS, Follow-up) was 1 and the “distribution of total angina pectoris score: Severe, percentage of patients” value (FAS, Follow-up) was “(0.07%)”. For the same molecule, the “patients with dose of nitroglycerin score 0 (%)” value (FAS, Follow-up) was “(74.24%)”, the “patients with dose of nitroglycerin score 1 (%)” value (FAS, Follow-up) was “(0.90%)” and the “patients with dose of nitroglycerin score 2 (%)” value (FAS, Follow-up) was “(23.19%)”. The “patients with dose of nitroglycerin score 4 (%)” value (FAS, Follow-up) was “(1.04%)”, the “patients with dose of nitroglycerin score 6 (%)” value (FAS, Follow-up) was “(0.63%)” and the “total angina pectoris score, Md” value (FAS, Follow-up) was 0.00. The “total angina pectoris score, Mean” value (FAS, Follow-up) was 3.59, the “change of total angina pectoris score, Md” value (FAS, Follow-up-baseline) was −2.00 and the “change of total angina pectoris score, Mean” value (FAS, Follow-up-baseline) was −3.49. For the same molecule, the “patients with change of dose of nitroglycerin score 0 (%)” value (FAS, Follow-up-baseline) was “(64.39%)”, the “patients with change of dose of nitroglycerin score 1 (%)” value (FAS, Follow-up-baseline) was “(0.28%)” and the “patients with change of dose of nitroglycerin score 2 (%)” value (FAS, Follow-up-baseline) was “(4.04%)”. The “patients with change of dose of nitroglycerin score 4 (%)” value (FAS, Follow-up-baseline) was “(0.28%)”, the “patients with change of dose of nitroglycerin score 6 (%)” value (FAS, Follow-up-baseline) was “(0.21%)” and the “patients with change of dose of nitroglycerin score −1 (%)” value (FAS, Follow-up-baseline) was “(0.42%)”. The “patients with change of dose of nitroglycerin score −2 (%)” value (FAS, Follow-up-baseline) was “(21.81%)”, the “patients with change of dose of nitroglycerin score −3 (%)” value (FAS, Follow-up-baseline) was “(0.14%)” and the “patients with change of dose of nitroglycerin score −4 (%)” value (FAS, Follow-up-baseline) was “(6.41%)”. The “patients with change of dose of nitroglycerin score −5 (%)” value (FAS, Follow-up-baseline) was “(0.14%)”, the “patients with change of dose of nitroglycerin score −6 (%)” value (FAS, Follow-up-baseline) was “(1.88%)” and the “change of attack times score, patients (%)” value (“change … patients (%)” below) (change 0, FAS) was “(44.70%)”. For the same molecule, the “change … patients (%)” value (change 0, PP) was “(44.46%)”, the “change … patients (%)” value (change 1, FAS) was “(1.94%)” and the “change … patients (%)” value (change 1, PP) was “(1.99%)”. For the same molecule, the “change … patients (%)” value (change 2, FAS) was “(1.73%)”, the “change … patients (%)” value (change 2, PP) was “(1.70%)” and the “change … patients (%)” value (change 4, FAS) was “(0.14%)”. For the same molecule, the “change … patients (%)” value (change 4, PP) was “(0.14%)”, the “change … patients (%)” value (change −1, FAS) was “(22.52%)” and the “change … patients (%)” value (change −1, PP) was “(22.44%)”. The “change … patients (%)” value (change −2, FAS) was “(22.73%)”, the “change … patients (%)” value (change −2, PP) was “(22.87%)” and the “change … patients (%)” value (change −3, FAS) was “(2.01%)”. The “change … patients (%)” value (change −3, PP) was “(2.06%)”.

From patent US9211310B2, “Use of a Chinese medicine composition in preparing medicaments for treating secondary prevention of myocardial infarction” (TASLY PHARMACEUTICAL GROUP CO., LTD, priority 2010, dated 2015)
